# What was measured:
# [1] = test system: alcohol-dependent adults and non-dependent problem drinkers; experiment: Human Study 2: intranasal oxytocin, alcohol self-administration; type: in vivo; conditions: versus placebo
# Description: In a second clinical study in humans, the effect(s) of intranasal oxytocin therapy on alcohol self-administration are determined in a population of alcohol-dependent adults and in a population of non-dependent problem drinkers.
# At least forty male and female adults are recruited from the community to the Brain and Mind Research Institute (BMRI) to participate in a laboratory based investigation looking at the impact of oxytocin on alcohol craving. Participants have a current diagnosis of alcohol dependence according to the Diagnostic and Statistical Manual of Mental Disorders, Fourth Edition (DSM-IV) as determined by the Structured Clinical Interview for the DSM-IV (SCID-IV) or are non-dependent subjects scoring higher than 8 on AUDIT. Male and female participants are chronic hazardous drinkers consuming more than 20 (females) or 25 (males) standard drinks per week (i.e., females: more than 200 g alcohol per week; males more than 250 g alcohol per week), respectively, and have not been abstinent more than 3 days per week in the 30 days preceding commencement of the trial as determined by AUDIT.
# (§1) All subjects are tested for baseline SCID-IV, AUDIT, PDQ, 90-day TLFB, DASS-21, PANAS, AUQ, FTND, urine toxicology, plasma oxytocin and cortisol, liver function testing, heart rate (HR), blood pressure (BP), and ECG, and females are pregnancy-tested and their menstrual cycles determined, as described herein above for Study 2. Neuropsychological evaluations are also performed e.g., according to CANTAB. Additionally, subjects are subjected to attention bias assessment task testing, wherein attention biases to alcohol-related cues are determined using e.g., stroop and dot-probe methodology. Subjects also participate in a reward learning computer task, to assess motivation for their alcohol consumption. Based on their test results, subjects are selected for recruitment in the study.
# (§2) Recruited subjects are administered placebo or oxytocin intranasally (80 IU per day: 40 IU at 9:00 am and 40 IU at 9:00 pm) over a period of 7 days, following completion of baseline measurements. Subjects are instructed on self-administration procedures. Drug administration commences on the evening of the day of the clinical and medical interview and ceases on a morning one-week later, after 14 doses have been administered. Subjects are randomized to oxytocin-receiving or placebo-receiving groups, and the groups are stratified according to gender, age, and drinking behavior. Subjects are contacted by telephone daily to confirm medication compliance and determine adverse events.
# Subjects returning to the BMRI on the afternoon of the final day of testing are evaluated. Bloods for plasma oxytocin and cortisol levels are collected before commencement. A urine toxicology test and alcohol breathalyzer test are also performed, to determine whether subjects have been alcohol-free and drug-free at the time of testing. Subjects are tested according to DASS-21, PANAS, 7-day TLFB, and AUQ, and neuropsychological evaluations e.g., according to CANTAB are performed. Changes in mood, drinking behavior and neuropsychology are evaluated for both groups by comparison with baseline evaluations. Changes in smoking behavior are evaluated by FTND testing and comparison with baseline evaluations. HR and BP records over the period and at cessation are also determined and compared to baseline levels before commencement of therapy. […]
# [2] = test system: alcohol-dependent adults and non-dependent problem drinkers; experiment: Human Study 3: chronic (4 week) intranasal oxytocin, double-blind placebo-controlled; type: in vivo
# Description: In a third clinical study in humans, a double-blind, randomized and placebo-controlled study is conducted to determine the effect(s) of intranasal oxytocin therapy on alcohol self-administration in a population of alcohol-dependent adults and in a population of non-dependent problem drinkers. This study determines safety and efficacy of chronic intranasal oxytocin therapy for problem drinking.
# At least 30 male and female alcohol-dependent adults and non-dependent problem drinkers are recruited according to the protocols described in the preceding examples hereof, to participate in a trial investigating chronic (4 week) intranasal oxytocin therapy for problem drinking e.g., alcohol-dependent subjects having a current diagnosis of alcohol dependence according to the Diagnostic and Statistical Manual of Mental Disorders, Fourth Edition (DSM-IV) as determined by the Structured Clinical Interview for the DSM-IV (SCID-IV), and non-dependent subjects scoring higher than 8 on AUDIT. Exclusion criteria are as indicated in the preceding examples.
# as §1, with “FTND, body mass index (BMI),” for “FTND,”, “bloods for baseline” for “plasma”, “evaluations” for “evaluations are also performed”, “CANTAB are also performed.” for “CANTAB.”
# as §2, with “28” for “7”, “procedures and given an initial 14 day supply of medication. Participants attend a mid-point assessment where they will receive the remaining 14 day supply of medication.” for “procedures.”, “28 days” for “one-week”, “56” for “14”, “behavior.” for “behavior. Subjects are contacted by telephone daily to confirm medication compliance and determine adverse events.”
# Recruited subjects are also fitted with an actigraphy watch and complete a sleep diary over the following two week period. The actigraphy watches provide information on sleep/wake cycles and light exposure which play an important role in the psychopathology of alcohol misuse. Participants also complete daily self-tests of drinking behavior (AUQ), mood (PANAS), and report on adverse effects of medication. All participants are contacted weekly beginning after 3 days from the commencement of therapy, to determine compliance and adverse events.
# Subjects returning to the BMRI on the afternoon of the 14th day of testing are evaluated i.e., the mid-point assessment. Bloods are taken for analysis of plasma oxytocin and cortisol levels as well as basic pathology including liver function and compared to baseline levels before commencement of drug dosing. A urine toxicology test and alcohol breathalyzer test are also performed, to determine whether subjects have been alcohol-free and drug-free at the time of testing. Subjects are tested according to DASS-21, PANAS, 14-day TLFB, and AUQ, and neuropsychological evaluations e.g., according to CANTAB are performed. Changes in mood, drinking behavior and neuropsychology are evaluated for both groups by comparison with baseline evaluations. […]
# [3] = dosing period and follow-up, than before therapy
# [4] = intranasal 80 IU per day for 28 days
smiles,measurement,setting,value
CC[C@H](C)[C@@H]1NC(=O)[C@H](Cc2ccc(O)cc2)NC(=O)[C@@H](N)CSSC[C@@H](C(=O)N2CCC[C@H]2C(=O)N[C@@H](CC(C)C)C(=O)NCC(N)=O)NC(=O)[C@H](CC(N)=O)NC(=O)[C@H](CCC(N)=O)NC1=O [oxytocin],alcohol consumed,[1]; ad libitum drinking sessions,consume less alcohol
same,bias to alcohol-related cues,[1],lower bias
same,positive response to the alcohol primer,[1],lower levels of positive response
same,reward motivation for alcohol consumption,[1],reduced reward motivation
same,subjective craving for alcohol,[1],lower
same,criteria for problem drinking,[2]; at 3-month or 6-month or 12-month follow-up,do not meet the criteria for problem drinking
same,heavy drinking days,"[2]; dosing period and 3-, 6-, 12-month follow-up, than before therapy",fewer heavy drinking days
same,cognitive biases to alcohol-related cues,[2]; dosing period and follow-up,reduced cognitive biases
same,"liver function, BMI, and heart function",[2]; dosing period and follow-up,gradually improved
same,reward driven motivation to consume alcohol,[2]; dosing period and follow-up,reduced reward driven motivation
same,abstinent days,[2]; [3],more abstinent days
same,period of time between heavy drinking days,[2]; [3],longer period of time between heavy drinking days
same,alcohol intake,[2]; [4],reduced alcohol intake
same,short-term memory function and general mood,[2]; [4],enhanced short-term memory function and general mood
same,impulsivity,"[2]; intranasal 80 IU per day for 28 days, dependent and non-dependent drinkers",decreased impulsivity
same,sleep behavior,[2]; throughout the medication dosing period,improved sleep behavior

# Source: US9119805B2, “Therapy and prevention of problem drinking” (THE UNIVERSITY OF SYDNEY, priority 2009, dated 2015)
